Measurements as given in the NIST ThermoML archive (doi:10.1016/j.jct.2007.06.014).
Numbers after ± are expanded uncertainties.

Assay: xn = mol fraction of the nth substance listed
Conditions: Liquid, Bellows volumetry

CCCC [butane] + CCC
mass density [kg/m3]
Conditions	280 K	300 K	320 K	340 K	360 K	380 K	400 K	420 K	440 K
1000 kPa, x2 = 0.2729	578.83 ± 1	–	528 ± 0.95	–	–	–	–	–	–
1000 kPa, x2 = 0.5021	563.28 ± 1	537.32 ± 0.97	–	–	–	–	–	–	–
1000 kPa, x2 = 0.7308	546.41 ± 0.99	–	–	–	–	–	–	–	–
2000 kPa, x2 = 0.2729	580.29 ± 1.1	–	530.61 ± 0.96	–	467.01 ± 0.84	–	–	–	–
2000 kPa, x2 = 0.5021	564.88 ± 1	539.48 ± 0.97	511.85 ± 0.92	479.55 ± 0.87	–	–	–	–	–
2000 kPa, x2 = 0.7308	548.19 ± 0.99	–	489.94 ± 0.89	–	–	–	–	–	–
3000 kPa, x2 = 0.2729	581.81 ± 1.1	–	533.12 ± 0.96	–	472.48 ± 0.86	–	–	–	–
3000 kPa, x2 = 0.5021	566.5 ± 1	541.56 ± 0.98	514.73 ± 0.93	483.91 ± 0.88	445.79 ± 0.81	–	–	–	–
3000 kPa, x2 = 0.7308	550.07 ± 0.99	–	493.41 ± 0.89	–	409.73 ± 0.75	–	–	–	–
5000 kPa, x2 = 0.2729	584.56 ± 1.1	–	537.8 ± 0.97	–	481.94 ± 0.87	–	398.7 ± 0.73	–	–
5000 kPa, x2 = 0.5021	569.65 ± 1	545.62 ± 0.98	519.99 ± 0.94	491.54 ± 0.89	458.29 ± 0.83	415.53 ± 0.76	–	–	–
5000 kPa, x2 = 0.7308	553.51 ± 1	–	499.74 ± 0.9	–	428.83 ± 0.78	–	–	–	–
10000 kPa, x2 = 0.2729	591.21 ± 1.1	–	548.01 ± 0.99	–	499.9 ± 0.9	–	441.29 ± 0.8	–	365.44 ± 0.66
10000 kPa, x2 = 0.5021	576.66 ± 1	554.42 ± 1	531.57 ± 0.96	506.78 ± 0.91	480.01 ± 0.87	449.59 ± 0.81	415.12 ± 0.76	374.84 ± 0.69	–
10000 kPa, x2 = 0.7308	561.23 ± 1	–	512.85 ± 0.93	–	456.8 ± 0.83	–	383.18 ± 0.7	–	–
20000 kPa, x2 = 0.2729	602.5 ± 1.1	–	564.4 ± 1	–	524.51 ± 0.95	–	481.03 ± 0.87	–	435.74 ± 0.79
20000 kPa, x2 = 0.5021	588.96 ± 1.1	569.12 ± 1	549.41 ± 0.99	528.92 ± 0.95	507.83 ± 0.92	485.35 ± 0.88	462.03 ± 0.84	438.42 ± 0.79	414.16 ± 0.75
20000 kPa, x2 = 0.7308	574.44 ± 1	–	532.72 ± 0.96	–	488.73 ± 0.88	–	440.67 ± 0.8	–	389.82 ± 0.71
30000 kPa, x2 = 0.2729	612.44 ± 1.1	–	577.65 ± 1	–	542.33 ± 0.98	–	505.41 ± 0.91	–	469.11 ± 0.85
30000 kPa, x2 = 0.5021	599.33 ± 1.1	581.32 ± 1.1	563.54 ± 1	545.35 ± 0.98	527.21 ± 0.95	508.03 ± 0.92	488.88 ± 0.88	469.92 ± 0.85	451.25 ± 0.82
30000 kPa, x2 = 0.7308	585.33 ± 1.1	–	547.73 ± 0.99	–	509.86 ± 0.92	–	470.45 ± 0.85	–	431.31 ± 0.78
40000 kPa, x2 = 0.2729	621.14 ± 1.1	–	588.82 ± 1.1	–	556.62 ± 1	–	523.61 ± 0.94	–	492.08 ± 0.89
40000 kPa, x2 = 0.5021	608.38 ± 1.1	591.53 ± 1.1	575.17 ± 1	558.59 ± 1	542.25 ± 0.98	525.24 ± 0.95	508.28 ± 0.92	491.93 ± 0.89	475.9 ± 0.86
40000 kPa, x2 = 0.7308	594.97 ± 1.1	–	560.18 ± 1	–	526.15 ± 0.95	–	491.38 ± 0.89	–	458.02 ± 0.83
50000 kPa, x2 = 0.2729	628.91 ± 1.1	–	598.52 ± 1.1	–	568.47 ± 1	–	538.25 ± 0.97	–	509.82 ± 0.92
50000 kPa, x2 = 0.5021	616.39 ± 1.1	600.55 ± 1.1	585.24 ± 1.1	569.82 ± 1	554.89 ± 1	539.26 ± 0.97	523.78 ± 0.94	509 ± 0.92	494.74 ± 0.89
50000 kPa, x2 = 0.7308	603.42 ± 1.1	–	570.96 ± 1	–	539.49 ± 0.97	–	507.84 ± 0.92	–	478.11 ± 0.86
60000 kPa, x2 = 0.2729	635.9 ± 1.1	–	607.13 ± 1.1	–	578.91 ± 1	–	550.71 ± 0.99	–	524.44 ± 0.95
60000 kPa, x2 = 0.5021	623.79 ± 1.1	608.7 ± 1.1	594.24 ± 1.1	579.76 ± 1	565.84 ± 1	551.17 ± 0.99	536.84 ± 0.97	523.17 ± 0.94	510.12 ± 0.92
60000 kPa, x2 = 0.7308	611.1 ± 1.1	–	580.28 ± 1.1	–	550.83 ± 0.99	–	521.54 ± 0.94	–	494.23 ± 0.89
70000 kPa, x2 = 0.2729	642.5 ± 1.2	–	614.83 ± 1.1	–	588.2 ± 1.1	–	561.45 ± 1	–	537.02 ± 0.97
70000 kPa, x2 = 0.5021	630.58 ± 1.1	616.01 ± 1.1	602.33 ± 1.1	588.57 ± 1.1	575.48 ± 1	561.44 ± 1	548.1 ± 0.99	535.32 ± 0.97	523.11 ± 0.94
70000 kPa, x2 = 0.7308	618.12 ± 1.1	–	588.77 ± 1.1	–	561.04 ± 1	–	533.25 ± 0.96	–	507.76 ± 0.92
80000 kPa, x2 = 0.2729	648.79 ± 1.2	–	622.08 ± 1.1	–	596.65 ± 1.1	–	571.06 ± 1	–	547.99 ± 0.99
80000 kPa, x2 = 0.5021	636.93 ± 1.1	622.84 ± 1.1	609.65 ± 1.1	596.66 ± 1.1	584.07 ± 1.1	570.85 ± 1	558.01 ± 1	546.03 ± 0.98	534.41 ± 0.96
80000 kPa, x2 = 0.7308	624.55 ± 1.1	–	596.34 ± 1.1	–	570.01 ± 1	–	543.56 ± 0.98	–	519.7 ± 0.94
90000 kPa, x2 = 0.2729	654.49 ± 1.2	–	628.57 ± 1.1	–	604.5 ± 1.1	–	579.66 ± 1	–	557.71 ± 1
90000 kPa, x2 = 0.5021	642.73 ± 1.2	629.02 ± 1.1	616.63 ± 1.1	603.93 ± 1.1	592.03 ± 1.1	579.23 ± 1	567.04 ± 1	555.52 ± 1	544.56 ± 0.98
90000 kPa, x2 = 0.7308	630.61 ± 1.1	–	603.52 ± 1.1	–	578.24 ± 1	–	552.92 ± 1	–	530.16 ± 0.96
100000 kPa, x2 = 0.2729	659.68 ± 1.2	–	634.85 ± 1.1	–	611.65 ± 1.1	–	587.69 ± 1.1	–	566.67 ± 1
100000 kPa, x2 = 0.5021	648.26 ± 1.2	635.14 ± 1.1	623.18 ± 1.1	610.72 ± 1.1	598.96 ± 1.1	587 ± 1.1	575.06 ± 1	564.2 ± 1	553.96 ± 1
100000 kPa, x2 = 0.7308	636.39 ± 1.1	–	610.01 ± 1.1	–	585.56 ± 1.1	–	561.28 ± 1	–	539.53 ± 0.97
120000 kPa, x2 = 0.2729	669.67 ± 1.2	–	646.16 ± 1.2	–	624.31 ± 1.1	–	601.92 ± 1.1	–	582.31 ± 1.1
120000 kPa, x2 = 0.5021	658.24 ± 1.2	646 ± 1.2	634.71 ± 1.1	622.95 ± 1.1	612.34 ± 1.1	600.73 ± 1.1	589.51 ± 1.1	579.48 ± 1	569.97 ± 1
120000 kPa, x2 = 0.7308	646.6 ± 1.2	–	621.8 ± 1.1	–	599.05 ± 1.1	–	576.29 ± 1	–	556.04 ± 1
140000 kPa, x2 = 0.2729	678.58 ± 1.2	–	656.29 ± 1.2	–	635.59 ± 1.1	–	614.15 ± 1.1	–	595.88 ± 1.1
140000 kPa, x2 = 0.5021	667.41 ± 1.2	655.77 ± 1.2	644.69 ± 1.2	634.01 ± 1.1	623.77 ± 1.1	612.71 ± 1.1	602.26 ± 1.1	592.86 ± 1.1	583.79 ± 1.1
140000 kPa, x2 = 0.7308	656.14 ± 1.2	–	632.64 ± 1.1	–	610.8 ± 1.1	–	589.3 ± 1.1	–	570.27 ± 1
160000 kPa, x2 = 0.2729	686.88 ± 1.2	–	665.5 ± 1.2	–	645.73 ± 1.2	–	625.33 ± 1.1	–	607.79 ± 1.1
160000 kPa, x2 = 0.5021	675.8 ± 1.2	664.45 ± 1.2	654.03 ± 1.2	643.77 ± 1.2	634.07 ± 1.1	623.67 ± 1.1	613.48 ± 1.1	604.42 ± 1.1	596.12 ± 1.1
160000 kPa, x2 = 0.7308	664.71 ± 1.2	–	642.48 ± 1.2	–	621.39 ± 1.1	–	600.76 ± 1.1	–	582.77 ± 1.1
180000 kPa, x2 = 0.2729	694.53 ± 1.2	–	673.94 ± 1.2	–	654.77 ± 1.2	–	635.3 ± 1.1	–	618.69 ± 1.1
180000 kPa, x2 = 0.5021	683.54 ± 1.2	672.59 ± 1.2	662.68 ± 1.2	652.74 ± 1.2	643.46 ± 1.2	633.32 ± 1.1	623.72 ± 1.1	615.03 ± 1.1	606.9 ± 1.1
180000 kPa, x2 = 0.7308	672.47 ± 1.2	–	651.07 ± 1.2	–	630.95 ± 1.1	–	611.22 ± 1.1	–	593.99 ± 1.1
200000 kPa, x2 = 0.2729	701.52 ± 1.3	–	681.74 ± 1.2	–	663.07 ± 1.2	–	644.44 ± 1.2	–	628.49 ± 1.1
200000 kPa, x2 = 0.5021	690.83 ± 1.2	680.14 ± 1.2	670.56 ± 1.2	660.89 ± 1.2	652.2 ± 1.2	642.49 ± 1.2	632.92 ± 1.1	624.5 ± 1.1	616.83 ± 1.1
200000 kPa, x2 = 0.7308	679.87 ± 1.2	–	659.14 ± 1.2	–	639.82 ± 1.1	–	620.55 ± 1.1	–	604.14 ± 1.1
